Where two headings read alike, the source gives them in different places.
How the values were obtained:
[1] = molecular target: human acetylcholinesterase (Homo sapiens, UniProt P22303); assay: biochemical; assay type: biochemical; conditions: for inhibition at 500 µg/mL: read-out: Inhibition of AChE activity %; for activity at 500 µg/mL: read-out: AChE activity %
Description: Inhibitor solution: 10 mg of the corresponding samples were respectively dissolved in 1 ml methanol.
Chromogen solution: 0.1 M Sodium phosphate buffer (pH=8, NaOH) was mixed with solution A at a ratio of 30:1.
Solution A: 39.6 mg 5,5′-dithio-bis[2-nitrobenzoic acid] and 15.0 mg NaHCO3 were weighed into a 10 ml flask and filled to the mark with 0.1 M Sodium-phosphate buffer (pH=7, NaOH).
Enzyme solution: A solution of human acetylcholinesterase containing 70 IU enzyme activity/ml H2O was prepared.
Substrate solution: 115.7 mg acetylthiocholine-iodide was weighed into a 10 ml flask and filled to the mark with H2O.
10 μl inhibitor solution was mixed with 185 μl chromogen solution and 10 μl enzyme solution. The solution was incubated for 10 minutes at room temperature with shaking. […] substrate solution was added and the increase in absorption at 412 nm was recorded until no more increase was observed (3-5 minutes).

CaCo-2 cells [2] = assay: CaCo-2 uptake trial extended with gardenia hydrolysate (%-uptake by HPLC/UV peak areas); assay type: in vitro ADME; conditions: sample 20 mg/100 ml; proportion on overall absorption
Description: The tests were performed in replicate and the results are expressed as %-uptake based on peak areas measured by HPLC/UV.

[3] = Content of test solution before and after incubation (stability under CaCo-2 test conditions); assay type: in vitro ADME; conditions: for Area-% Fingerprint of test solution after 120 minutes / Area-% Fingerprint of test solution prior to incubation: Gardenia extract test solution
Description: (§1) CaCo-2 cells were incubated with 10 mg Gardenia extract and 10 mg crocetin/100 mL medium. The test compounds were dissolved in methanol and then diluted with incubation medium. Incubations were performed at 37° C. for 30, 60 and 120 minutes.
The content of crocetin related esters and crocetin in the sample used for incubation testing was determined.
Table 7 provides the content of test solution prior to incubation:
Table 8 provides the corresponding data for the test solution obtained after 120 minutes.
(§2) An appropriate amount of standard was transferred into a 10 mL flask and dissolved in 3 mL methanol and filled to the mark with water. Dilutions were prepared in mobile phase.
(§3) Quantification was performed by external standardization after linear regression analysis.

[4] = stated as known property; cited from earlier work
CaCo-2 cells [5] = assay: Cellular uptake of crocin and crocetin in CaCo-2 cells (cellular content); assay type: in vitro ADME; conditions: for Crocetin (HPLC) concentration in the cells: 10 mg crocetin/100 mL medium; for HPLC peaks in the cells: 10 mg Gardenia extract/100 mL medium
Description: as §1
Cells were grown in 75 cm^2 culture-flasks (T75) and sub-cultured after one week (every other day washed with PBS buffer, removed with trypsin and transferred to a new culture flask).
The cells were washed with PBS buffer, incubated with 4 ml medium containing the suspended samples for 30, 60 or 120 minutes.
After the corresponding incubation time, the cells were washed with PBS buffer/MeOH=70/30 and removed using 1 ml of MeOH. Cells were sonicated 3 times for 30 seconds, centrifuged for 10 min and the pellets were discarded. The supernatant was used as sample for HPLC and UV/VIS-analysis.
as §2, §3

[6] = Solubility in water / aqueous alkaline solution; assay type: physicochemical; conditions: found by the applicant
[7] = sample 0.50 mg/ml, Neg Control = 0.0
[8] = sample 0.50 mg/ml, Neg Control = 100.0
[9] = after 120 minutes incubation at 37° C.

Chain of human acetylcholinesterase (P22303 32-614): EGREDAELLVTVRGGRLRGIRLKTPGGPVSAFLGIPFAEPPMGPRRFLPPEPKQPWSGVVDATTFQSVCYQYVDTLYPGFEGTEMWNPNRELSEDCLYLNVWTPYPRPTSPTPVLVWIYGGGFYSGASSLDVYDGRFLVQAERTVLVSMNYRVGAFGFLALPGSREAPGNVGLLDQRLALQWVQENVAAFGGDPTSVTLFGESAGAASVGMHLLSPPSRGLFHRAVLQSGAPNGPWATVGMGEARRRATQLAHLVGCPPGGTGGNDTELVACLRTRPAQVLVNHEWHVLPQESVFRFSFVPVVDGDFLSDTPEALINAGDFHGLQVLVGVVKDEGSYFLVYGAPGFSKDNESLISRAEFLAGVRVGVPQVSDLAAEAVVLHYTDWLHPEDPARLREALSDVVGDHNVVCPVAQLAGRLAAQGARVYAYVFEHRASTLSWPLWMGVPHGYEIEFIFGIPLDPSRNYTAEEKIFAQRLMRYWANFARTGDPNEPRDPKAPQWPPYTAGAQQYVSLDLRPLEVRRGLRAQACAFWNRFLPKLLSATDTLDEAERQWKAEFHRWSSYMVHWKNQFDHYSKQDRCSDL

CC(/C=C/C=C(\C)C(=O)O)=C\C=C\C=C(C)\C=C\C=C(/C)C(=O)O [Crocetin, 8,8′-Diapo-ψ,ψ-carotenedioic acid, reference compound]
inhibition at 500 µg/mL [1, 7]: 7.5%
activity at 500 µg/mL [1, 8]: 92.5%
% uptake of crocetin (CaCo-2 cells [2]): 0.53%
content of test solution after 120 minutes [3, 9]: 9.77 mg/100 ml
content of test solution prior to incubation ([3]; prior to incubation, incubation medium): 9.82 mg/100 ml
solubility in aqueous alkaline solution [4]: soluble
solubility in water [4]: insoluble in water
Crocetin (HPLC) concentration in the cells (CaCo-2 cells [5]; time 0 min): BLD (BLD = <0.01 mg/100 ml)
Crocetin (HPLC) concentration in the cells (CaCo-2 cells [5]; time 30 min): BLD (BLD = <0.01 mg/100 ml)
Crocetin (HPLC) concentration in the cells (CaCo-2 cells [5]; time 60 min): BLD (BLD = <0.01 mg/100 ml)
Crocetin (HPLC) concentration in the cells (CaCo-2 cells [5]; time 120 min): BLD (BLD = <0.01 mg/100 ml)

CC(/C=C/C=C(\C)C(=O)O[C@@H]1O[C@H](CO[C@@H]2O[C@H](CO)[C@@H](O)[C@H](O)[C@H]2O)[C@@H](O)[C@H](O)[C@H]1O)=C\C=C\C=C(C)\C=C\C=C(/C)C(=O)O[C@@H]1O[C@H](CO[C@@H]2O[C@H](CO)[C@@H](O)[C@H](O)[C@H]2O)[C@@H](O)[C@H](O)[C@H]1O (relative stereo) [DGTC, digentobiosyl-(trans)crocetin]
Area-% Fingerprint of test solution after 120 minutes [3, 9]: 43.4 Area-%
Area-% Fingerprint of test solution prior to incubation ([3]; prior to incubation): 45.3 Area-%
HPLC peaks in the cells (CaCo-2 cells [5]; time 0 min): not detected
HPLC peaks in the cells (CaCo-2 cells [5]; time 30 min): not detected
HPLC peaks in the cells (CaCo-2 cells [5]; time 60 min): not detected
HPLC peaks in the cells (CaCo-2 cells [5]; time 120 min): not detected

neapolitanosyl-glucosyl-(trans)crocetin [NGTC]
Area-% Fingerprint of test solution after 120 minutes [3, 9]: 17.9 Area-%
Area-% Fingerprint of test solution prior to incubation ([3]; prior to incubation): 18.1 Area-%
HPLC peaks in the cells (CaCo-2 cells [5]; time 0 min): not detected
HPLC peaks in the cells (CaCo-2 cells [5]; time 30 min): not detected
HPLC peaks in the cells (CaCo-2 cells [5]; time 60 min): not detected
HPLC peaks in the cells (CaCo-2 cells [5]; time 120 min): not detected

CC(=C/C=C/C=C(C)/C=C/C=C(/C)C(=O)O[C@@H]1O[C@H](CO[C@@H]2O[C@H](CO)[C@@H](O)[C@H](O)[C@H]2O)[C@@H](O)[C@H](O)[C@H]1O)/C=C/C=C(\C)C(=O)O[C@@H]1O[C@H](CO[C@@H]2O[C@H](CO)[C@@H](O)[C@H](O)[C@H]2O)[C@@H](O)[C@H](O)[C@H]1O (relative stereo) [DGCC, digentobiosyl-(cis)crocetin]
Area-% Fingerprint of test solution after 120 minutes [3, 9]: 15.2 Area-%
Area-% Fingerprint of test solution prior to incubation ([3]; prior to incubation): 16.6 Area-%
HPLC peaks in the cells (CaCo-2 cells [5]; time 0 min): not detected
HPLC peaks in the cells (CaCo-2 cells [5]; time 30 min): not detected
HPLC peaks in the cells (CaCo-2 cells [5]; time 60 min): not detected
HPLC peaks in the cells (CaCo-2 cells [5]; time 120 min): not detected

CCOC(=O)CCC(=O)O [Monoester]
Inhibition of AChE activity % [1, 7]: 89.2%
AChE activity % [1, 8]: 10.8%
solubility in water [6]: good solubility in water

CC(/C=C/C=C(\C)C(=O)O[C@@H]1O[C@H](CO[C@@H]2O[C@H](CO)[C@@H](O)[C@H](O)[C@H]2O)[C@@H](O)[C@H](O)[C@H]1O)=C\C=C\C=C(C)\C=C\C=C(/C)C(=O)O[C@@H]1O[C@H](CO[C@@H]2O[C@H](CO)[C@@H](O)[C@H](O)[C@H]2O)[C@@H](O)[C@H](O)[C@H]1O [Crocin, di-gentiobiose ester of crocetin]
activity at 500 µg/mL [1]: 52.7%
inhibition at 500 µg/mL [1]: 47.3%
solubility in water [4]: very good water-solubility

CC(/C=C/C=C(\C)C(=O)O)=C\C=C\C=C(C)\C=C\C=C(/C)C(=O)O[C@@H]1O[C@H](CO[C@@H]2O[C@H](CO)[C@@H](O)[C@H](O)[C@H]2O)[C@@H](O)[C@H](O)[C@H]1O (relative stereo) [GTC, gentobisyl-(trans)crocetin]
Area-% Fingerprint of test solution after 120 minutes [3, 9]: 10.3 Area-%
Area-% Fingerprint of test solution prior to incubation ([3]; prior to incubation): 9.7 Area-%
HPLC peaks in the cells (CaCo-2 cells [5]; time 0 min): not detected
HPLC peaks in the cells (CaCo-2 cells [5]; time 30 min): not detected
HPLC peaks in the cells (CaCo-2 cells [5]; time 60 min): not detected
HPLC peaks in the cells (CaCo-2 cells [5]; time 120 min): not detected
